Measurements: patent US12459922B2 (Gilead Sciences, Inc., priority 2022, dated 2025)

What was measured:
PARP7 = molecular target: T1, PARP7 (Homo sapiens, UniProt Q7Z3E1); test: Probe Displacement Assay for PARP7 (MSD electrochemiluminescent, biotinylated probe RBNO11147); conditions: displacement of biotinylated probe RBNO11147 from PARP7 NAD+-binding site; read-out: MSD ProbeDisp PARP7 IC50
T1 sequence (Q7Z3E1 1-657): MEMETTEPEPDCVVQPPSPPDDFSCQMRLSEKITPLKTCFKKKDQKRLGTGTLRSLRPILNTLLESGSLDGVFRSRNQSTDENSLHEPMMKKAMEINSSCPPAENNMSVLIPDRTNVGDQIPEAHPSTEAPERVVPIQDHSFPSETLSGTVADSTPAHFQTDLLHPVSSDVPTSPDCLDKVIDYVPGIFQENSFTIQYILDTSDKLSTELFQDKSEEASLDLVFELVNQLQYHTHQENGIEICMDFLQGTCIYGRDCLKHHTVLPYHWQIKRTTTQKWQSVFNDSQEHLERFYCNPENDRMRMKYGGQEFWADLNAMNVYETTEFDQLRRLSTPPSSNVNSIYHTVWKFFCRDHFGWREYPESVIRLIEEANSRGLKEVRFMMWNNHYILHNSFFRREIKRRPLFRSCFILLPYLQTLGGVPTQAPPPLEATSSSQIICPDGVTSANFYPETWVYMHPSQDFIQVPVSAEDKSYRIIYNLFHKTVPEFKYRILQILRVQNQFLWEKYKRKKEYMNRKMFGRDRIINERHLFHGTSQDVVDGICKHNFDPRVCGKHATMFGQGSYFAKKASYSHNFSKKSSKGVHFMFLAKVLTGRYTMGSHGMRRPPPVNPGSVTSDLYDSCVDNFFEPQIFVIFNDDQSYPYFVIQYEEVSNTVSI
Protocol: Displacement of a biotinylated probe (RBNO11147; Wigle et al., Cell Chemical Biology, 2020, pp. 877-887) from the PARP7 NAD+-binding site was measured in vitro using a Mesoscale Discovery electrochemiluminescent assay. […] Next, 10 ml of 10 nM PARP7 protein incubated for 1 hour at room temperature with a dose response curve of each test compound in a Greiner LDV polypropylene plate (#781201) is added to the MSD plate containing the immobilized probe. The interaction is allowed to reach equilibrium for 1.5 hours, and then 10 ml of SULFO-TAG labeled anti-GST antibody (Cat #R32AA-1) is added to each well and allowed to incubate for an additional 1.5 hours at room temperature. Finally, 10 ml of MSD read buffer T (4×, Cat. #R92C-1) is added to each well using a Bravo liquid handler to prevent air bubbles in the wells, and the plates are subsequently read in an MSD instrument. Light intensity is then measured to quantify the amount of PARP7 bound to the immobilized probe on the plate.

[1] = system: endogenous cellular STAT1 (phosphorylated at Tyr701) in NCI-H1373 cells; test: Phospho-STAT1 (Tyr701) LANCE Ultra TR-FRET Detection Assay; assay type: cell-based; conditions: Homo sapiens, NCI-H1373, 48 h, phospho-STAT1 (Tyr701) induction, read-out: NH1373 pSTAT1 EC50

IC50 (PARP7)	EC50 [1]	Structure (SMILES)
0.352 nM	11.2 nM	C[C@@H](CCCn1ccc2cc(-c3nc4ccccc4o3)c(F)cc2c1=O)Nc1cn[nH]c(=O)c1C(F)(F)F [Example 307, (S)-6-(benzo[d]oxazol-2-yl)-7-fluoro-2-(4-((6-oxo-5-(trifluoromethyl)-1,6-dihydropyridazin-4-yl)amino)pentyl)isoquinolin-1(2H)-one]
0.387 nM	35.8 nM	C[C@@H](CCCn1ccc2cc(-c3nc4ccccc4s3)c(F)cc2c1=O)Nc1cn[nH]c(=O)c1C(F)(F)F [Example 308, (S)-6-(benzo[d]thiazol-2-yl)-7-fluoro-2-(4-((6-oxo-5-(trifluoromethyl)-1,6-dihydropyridazin-4-yl)amino)pentyl)isoquinolin-1(2H)-one]
0.258 nM	149 nM	C[C@@H](CCCn1ccc2cc(-c3ncc(C(F)(F)F)s3)c(F)cc2c1=O)Nc1cn[nH]c(=O)c1C(F)(F)F [Example 309, (S)-7-fluoro-2-(4-((6-oxo-5-(trifluoromethyl)-1,6-dihydropyridazin-4-yl)amino)pentyl)-6-(5-(trifluoromethyl)thiazol-2-yl)isoquinolin-1(2H)-one]
1.3 nM	910 nM	Cc1cc(NC2CC2)nc(-c2cc3ccn(CCC[C@H](C)Nc4cn[nH]c(=O)c4C(F)(F)F)c(=O)c3cc2F)n1 [Example 310, (S)-6-(4-(cyclopropylamino)-6-methylpyrimidin-2-yl)-7-fluoro-2-(4-((6-oxo-5-(trifluoromethyl)-1,6-dihydropyridazin-4-yl)amino)pentyl)isoquinolin-1(2H)-one]
0.258 nM	14 nM	C[C@@H](CCCn1ccc2cc(-c3ncc(C(F)(F)F)c(N4C[C@@H](O)[C@@H]4C)n3)c(F)cc2c1=O)Nc1cn[nH]c(=O)c1C(F)(F)F [Example 311, 7-fluoro-6-(4-((2S,3R)-3-hydroxy-2-methylazetidin-1-yl)-5-(trifluoromethyl)pyrimidin-2-yl)-2-((S)-4-((6-oxo-5-(trifluoromethyl)-1,6-dihydropyridazin-4-yl)amino)pentyl)isoquinolin-1(2H)-one]
0.623 nM	70 nM	C[C@@H](CCCn1ccc2cc(-c3ncc(C(F)(F)F)c(N4C[C@@H](O)C[C@@H]4C)n3)c(F)cc2c1=O)Nc1cn[nH]c(=O)c1C(F)(F)F [Example 312, 7-fluoro-6-(4-((2S,4S)-4-hydroxy-2-methylpyrrolidin-1-yl)-5-(trifluoromethyl)pyrimidin-2-yl)-2-((S)-4-((6-oxo-5-(trifluoromethyl)-1,6-dihydropyridazin-4-yl)amino)pentyl)isoquinolin-1(2H)-one]
0.192 nM	18.4 nM	C[C@@H](CCCn1ccc2cc(-c3ncc(C(F)(F)F)c(N4C[C@H](O)C[C@@H]4C)n3)c(F)cc2c1=O)Nc1cn[nH]c(=O)c1C(F)(F)F [Example 313, 7-fluoro-6-(4-((2S,4R)-4-hydroxy-2-methylpyrrolidin-1-yl)-5-(trifluoromethyl)pyrimidin-2-yl)-2-((S)-4-((6-oxo-5-(trifluoromethyl)-1,6-dihydropyridazin-4-yl)amino)pentyl)isoquinolin-1(2H)-one]
0.185 nM	6.08 nM	C[C@@H](CCCn1cnc2cc(-c3ncc(C(F)(F)F)c(N4C[C@@H](O)[C@@H]4C)n3)c(F)cc2c1=O)Nc1cn[nH]c(=O)c1C(F)(F)F [Example 314, 6-fluoro-7-(4-((2S,3R)-3-hydroxy-2-methylazetidin-1-yl)-5-(trifluoromethyl)pyrimidin-2-yl)-3-((S)-4-((6-oxo-5-(trifluoromethyl)-1,6-dihydropyridazin-4-yl)amino)pentyl)quinazolin-4(3H)-one]
0.339 nM	3.03 nM	Nc1nc(-c2cc3ccn(CCC[C@H](COC(F)F)Nc4cn[nH]c(=O)c4C(F)(F)F)c(=O)c3cc2F)ncc1C(F)F [Example 376, (R)-6-(4-amino-5-(difluoromethyl)pyrimidin-2-yl)-2-(5-(difluoromethoxy)-4-((6-oxo-5-(trifluoromethyl)-1,6-dihydropyridazin-4-yl)amino)pentyl)-7-fluoroisoquinolin-1(2H)-one]
0.179 nM	1.15 nM	O=c1[nH]ncc(N[C@H](CCCn2ccc3cc(-c4ncc(C(F)F)cn4)c(F)cc3c2=O)COC(F)F)c1C(F)(F)F [Example 377, (R)-2-(5-(difluoromethoxy)-4-((6-oxo-5-(trifluoromethyl)-1,6-dihydropyridazin-4-yl)amino)pentyl)-6-(5-(difluoromethyl)pyrimidin-2-yl)-7-fluoroisoquinolin-1(2H)-one]
0.255 nM	2.45 nM	Nc1nc(-c2cc3ccn(CCC[C@H](COC(F)F)Nc4cn[nH]c(=O)c4C(F)(F)F)c(=O)c3cc2F)ncc1Cl [Example 378, (R)-6-(4-amino-5-chloropyrimidin-2-yl)-2-(5-(difluoromethoxy)-4-((6-oxo-5-(trifluoromethyl)-1,6-dihydropyridazin-4-yl)amino)pentyl)-7-fluoroisoquinolin-1(2H)-one]
0.14 nM	2.43 nM	Nc1nc(-c2cc3ccn(CCC[C@H](COC(F)F)Nc4cn[nH]c(=O)c4C(F)(F)F)c(=O)c3cc2F)ncc1C(F)(F)F [Example 379, (R)-6-(4-amino-5-(trifluoromethyl)pyrimidin-2-yl)-2-(5-(difluoromethoxy)-4-((6-oxo-5-(trifluoromethyl)-1,6-dihydropyridazin-4-yl)amino)pentyl)-7-fluoroisoquinolin-1(2H)-one]
0.211 nM	4.88 nM	Nc1nc(-c2cc3ccn(CCC[C@H](COC(F)F)Nc4cn[nH]c(=O)c4C(F)(F)F)c(=O)c3cc2F)ccc1C(F)(F)F [Example 380, (R)-6-(6-amino-5-(trifluoromethyl)pyridin-2-yl)-2-(5-(difluoromethoxy)-4-((6-oxo-5-(trifluoromethyl)-1,6-dihydropyridazin-4-yl)amino)pentyl)-7-fluoroisoquinolin-1(2H)-one]
0.28 nM	0.885 nM	O=c1[nH]ncc(N[C@H](CCCn2ccc3cc(-c4ncc(Cl)cn4)c(F)cc3c2=O)COC(F)F)c1C(F)(F)F [Example 381, (R)-6-(5-chloropyrimidin-2-yl)-2-(5-(difluoromethoxy)-4-((6-oxo-5-(trifluoromethyl)-1,6-dihydropyridazin-4-yl)amino)pentyl)-7-fluoroisoquinolin-1(2H)-one]
